The values below come from ChEMBL document CHEMBL3132826, “Investigation of a tetrahydroisoquinoline scaffold as dual-action steroid sulfatase inhibitors generated by parallel solid-phase synthesis” (Medchemcomm, 2013).

The inhibition is the change of the read-out against control, counted positive when it falls.

The test system of series [1] is MCF7. Nature of the series: Estrogenic activity in human MCF7 cells assessed as cell proliferation at 1 uM by MTS assay relative to basal level. The following applies: mcf7, 1 µM. The class given is ADME, cell-based. For orientation: Tetrazolium dyes change colour on reduction, which living cells bring about.
In series [2] the test system is MCF7. Nature of the series: Estrogenic activity in human MCF7 cells assessed as cell proliferation at 0.1 uM by MTS assay relative to basal level. In kind it is ADME, cell-based. The following applies: mcf7, 0.1 µM.
Series [3] concerns MCF7. Nature of the series: Estrogenic activity in human MCF7 cells assessed as cell proliferation at 0.01 uM by MTS assay relative to basal level. In kind it is ADME, cell-based. The conditions noted are these: mcf7, 0.01 µM.
The target of series [4] is T1, Steryl-sulfatase (Homo sapiens) (UniProt P08842).
T1 sequence (whole entry): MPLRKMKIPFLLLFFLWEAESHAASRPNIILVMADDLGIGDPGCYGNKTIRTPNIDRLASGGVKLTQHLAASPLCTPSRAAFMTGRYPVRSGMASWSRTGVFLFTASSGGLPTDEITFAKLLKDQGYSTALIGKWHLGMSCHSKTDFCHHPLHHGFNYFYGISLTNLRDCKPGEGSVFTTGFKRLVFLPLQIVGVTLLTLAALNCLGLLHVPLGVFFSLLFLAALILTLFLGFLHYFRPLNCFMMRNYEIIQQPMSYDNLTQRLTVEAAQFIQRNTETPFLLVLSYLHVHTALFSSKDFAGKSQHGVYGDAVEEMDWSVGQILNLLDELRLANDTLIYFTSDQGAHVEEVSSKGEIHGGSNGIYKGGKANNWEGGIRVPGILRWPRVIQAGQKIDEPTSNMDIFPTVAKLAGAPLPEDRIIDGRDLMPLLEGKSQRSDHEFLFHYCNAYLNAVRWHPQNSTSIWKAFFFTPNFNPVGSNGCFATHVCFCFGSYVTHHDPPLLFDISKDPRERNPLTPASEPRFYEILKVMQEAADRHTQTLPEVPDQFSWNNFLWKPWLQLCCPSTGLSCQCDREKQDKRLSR
Kind of series: Inhibition of STS (unknown origin) expressed in HEK-293 cells assessed as transformation of [3H]-E1S into E1 at 1 uM by […]. The class given is cell-based. The following applies: HEK293.

Series [5] deals with T1, Steryl-sulfatase (Homo sapiens). Kind of series: Inhibition of STS (unknown origin) expressed in HEK-293 cells assessed as transformation of [3H]-E1S into E1 at 0.1 uM by […]. The following applies: HEK293. The class given is cell-based.

As for `CN(C)CCCN(Cc1ccccc1)c1ccc(C(=O)N2CCc3ccc(O)cc3C2)cc1`, the figures for the Activity in series [1], in series [2] and in series [3] were 25.9%, 18.3% and 19.4%, respectively.
The corresponding values for `CN(C)CCN(Cc1ccccc1)c1ccc(C(=O)N2CCc3ccc(O)cc3C2)cc1` are 4.6%, 6.3% and 9.6%.
On to `CCN(Cc1cccnc1)c1cccc(C(=O)N2CCc3ccc(O)cc3C2)c1`, for which the Activity in series [1], in series [2] and in series [3] was 0% in each case.
In the case of `CCN(Cc1ccc(Br)cc1)c1ccc(C(=O)N2CCc3ccc(O)cc3C2)cc1`, the Activity was 76.7% in series [1], 10.6% in series [2] and 0% in series [3].
As for `CCN(Cc1ccc(Br)cc1)c1cccc(C(=O)N2CCc3ccc(O)cc3C2)c1`, the Activity in series [1] was found to be 5.5%; in series [2], 0%; in series [3] it was 0%.
Consider `O=C(c1ccc(N(CCCO)Cc2ccccc2)cc1)N1CCc2ccc(O)cc2C1`, for which the Activity in series [1] was 4%; in series [2], 0%; in series [3], 0%.
As for `O=C(c1cccc(N(CCCO)Cc2ccccc2)c1)N1CCc2ccc(O)cc2C1`, the results for the Activity in series [1], in series [2] and in series [3] were 94.2%, 14.2% and 0%, respectively.
The matching figures for `CCN(Cc1cccc(Br)c1)c1cccc(C(=O)N2CCc3ccc(O)cc3C2)c1`: 8.5%, 0% and 0%.
The matching figures for `CN(CCCN1CCCCC1)c1ccc(C(=O)N2CCc3ccc(O)cc3C2)cc1`: 0%, 0% and 0%.
The corresponding values for `CN(C)CCN(CCN(C)C)c1cccc(C(=O)N2CCc3ccc(O)cc3C2)c1` are 84.1%, 14.6% and 0%.
Turning to `CCN(Cc1ccncc1)c1cccc(C(=O)N2CCc3ccc(O)cc3C2)c1`, the Activity in series [1] came to 12.8%; in series [2], 0%; in series [3], 6%.
The corresponding values for `CCN(Cc1ccccn1)c1cccc(C(=O)N2CCc3ccc(O)cc3C2)c1` are 87.3%, 58.4% and 10.6%.
For the molecule `CCCN(Cc1ccccc1)c1ccc(C(=O)N2CCc3ccc(O)cc3C2)cc1`, the Activity in series [1] came out at 8.9%; in series [2] it was 0%; in series [3], 0%.
`CCCN(Cc1ccccc1)c1cccc(C(=O)N2CCc3ccc(O)cc3C2)c1`: the figures for the Activity in series [1], in series [2] and in series [3] were 20.8%, 0% and 1.6%, respectively.
The matching figures for `O=C(c1cccc(N(Cc2ccccc2)Cc2ccco2)c1)N1CCc2ccc(O)cc2C1`: 80.7%, 63.3% and 44.9%.
The matching figures for `O=C(c1cccc(N2CCc3ccccc3C2)c1)N1CCc2ccc(O)cc2C1`: 14.7%, 0% and 0%.
Regarding `CN(CCN1CCCCC1)c1cccc(C(=O)N2CCc3ccc(O)cc3C2)c1`, the Activity in series [1] amounted to 5.3%; in series [2], 0%; in series [3] it was 0%.
Regarding `CN(CCN1CCCCC1)c1ccc(C(=O)N2CCc3ccc(O)cc3C2)cc1`, the Activity was 12.2% in series [1], 4.6% in series [2] and 2.1% in series [3].
Regarding `NS(=O)(=O)Oc1ccc2c(c1)CN(C(=O)c1cccc(N3CCC(N4CCCCC4)CC3)c1)CC2`, the values for the inhibition in series [4] and in series [5] were 8% and 0%, respectively.
Consider `CCN(Cc1cccc(Br)c1)c1ccc(C(=O)N2CCc3ccc(O)cc3C2)cc1`, for which the Activity in series [1] came to 18.3%; in series [2], 0%; in series [3], 1.8%.
`O=C(c1cccc(N(CCO)Cc2ccccc2)c1)N1CCc2ccc(O)cc2C1`: the figures for the Activity in series [1], in series [2] and in series [3] were 12%, 3% and 0.5%, respectively.
For `CCN(Cc1ccc(Br)cc1)c1ccc(C(=O)N2CCc3ccc(OS(N)(=O)=O)cc3C2)cc1`, the figures for the inhibition in series [4] and in series [5] were 95.9% and 78.2%, respectively.
Consider `NS(=O)(=O)Oc1ccc2c(c1)CN(C(=O)c1ccc(N(Cc3ccccc3)Cc3ccco3)cc1)CC2`, for which the inhibition in series [4] stood at 98.2%; in series [5], 90.8%.
With `NS(=O)(=O)Oc1ccc2c(c1)CN(C(=O)c1cccc(N3CCCCC3)c1)CC2`, the results for the inhibition in series [4] and in series [5] were 11.9% and 1%, respectively.
As to `NS(=O)(=O)Oc1ccc2c(c1)CN(C(=O)c1ccc(N3CCCCC3)cc1)CC2`, the inhibition turned out to be 38.3% in series [4] and 11.5% in series [5].
The matching figures for `NS(=O)(=O)Oc1ccc2c(c1)CN(C(=O)c1cccc(N(CCCO)Cc3ccccc3)c1)CC2`: 37.3% and 25.8%.
On to `CCN(Cc1ccccn1)c1cccc(C(=O)N2CCc3ccc(OS(N)(=O)=O)cc3C2)c1`, for which the inhibition worked out at 19.9% in series [4] and 6.5% in series [5].
The corresponding values for `CN(CCN1CCCCC1)c1cccc(C(=O)N2CCc3ccc(OS(N)(=O)=O)cc3C2)c1` are 30.8% and 24.5%.
The matching figures for `CN(CCCN1CCCCC1)c1ccc(C(=O)N2CCc3ccc(OS(N)(=O)=O)cc3C2)cc1`: 40.7% and 17.4%.
As for `CCN(Cc1ccccc1)c1cccc(C(=O)N2CCc3ccc(OS(N)(=O)=O)cc3C2)c1`, the inhibition was determined as 69% in series [4] and 17.3% in series [5].
Consider `CN(C)CCN(Cc1ccccc1)c1cccc(C(=O)N2CCc3ccc(OS(N)(=O)=O)cc3C2)c1`, for which the values for the inhibition in series [4] and in series [5] were 28.6% and 0%, respectively.
Turning to `NS(=O)(=O)Oc1ccc2c(c1)CN(C(=O)c1cccc(N3CCOCC3)c1)CC2`, the inhibition in series [4] was determined as 20.9%; in series [5] it was 0%.
Turning to `CCN(Cc1cccnc1)c1ccc(C(=O)N2CCc3ccc(OS(N)(=O)=O)cc3C2)cc1`, the inhibition in series [4] was found to be 85.2%; in series [5], 35.7%.
The matching figures for `NS(=O)(=O)Oc1ccc2c(c1)CN(C(=O)c1cccc(N3CCC(Cc4ccccc4)CC3)c1)CC2`: 41.9% and 1.4%.
The corresponding values for `CCN(Cc1ccc(Br)cc1)c1cccc(C(=O)N2CCc3ccc(OS(N)(=O)=O)cc3C2)c1` are 84.5% and 24.2%.
The corresponding values for `NS(=O)(=O)Oc1ccc2c(c1)CN(C(=O)c1ccc(N(CCCO)Cc3ccccc3)cc1)CC2` are 64.3% and 5.7%.
As for `CN(C)CCN(CCN(C)C)c1cccc(C(=O)N2CCc3ccc(OS(N)(=O)=O)cc3C2)c1`, the inhibition in series [4] is 17.1%; in series [5] it was 0%.
The matching figures for `NS(=O)(=O)Oc1ccc2c(c1)CN(C(=O)c1cccc(N3CCN(Cc4ccccc4)CC3)c1)CC2`: 23.7% and 0%.
For the molecule `CCN(Cc1ccccc1)Cc1ccc(S(=O)(=O)N2CCc3ccc(OS(N)(=O)=O)cc3C2)cc1`, the inhibition came out at 31% in series [4] and 10% in series [5].
Consider `NS(=O)(=O)Oc1ccc2c(c1)CN(C(=O)c1cccc(N3CCN(c4ncccn4)CC3)c1)CC2`, for which the inhibition in series [4] came to 24.4%; in series [5], 1.6%.
With `NS(=O)(=O)Oc1ccc2c(c1)CN(C(=O)c1cccc(N3CCSCC3)c1)CC2`, the inhibition in series [4] came to 39.6%; in series [5], 2.3%.
The matching figures for `CN(C)CCN(Cc1ccccc1)c1ccc(C(=O)N2CCc3ccc(OS(N)(=O)=O)cc3C2)cc1`: 57.8% and 13.9%.
`CN(CCN1CCCCC1)c1ccc(C(=O)N2CCc3ccc(OS(N)(=O)=O)cc3C2)cc1`: the inhibition in series [4] is 26.8%; in series [5], 0.3%.
On to `CCN(Cc1ccccc1)Cc1ccc(CN2CCc3ccc(OS(N)(=O)=O)cc3C2)cc1`, for which the inhibition in series [4] was 17%; in series [5], 1%.
The matching figures for `CN1CCN(c2cccc(C(=O)N3CCc4ccc(OS(N)(=O)=O)cc4C3)c2)CC1`: 12.6% and 0%.
With `CN1CCN(c2ccc(C(=O)N3CCc4ccc(OS(N)(=O)=O)cc4C3)cc2)CC1`, the inhibition was determined as 23.3% in series [4] and 2.9% in series [5].
The corresponding values for `CC(C)CCN(CCC(C)C)c1ccc(C(=O)N2CCc3ccc(OS(N)(=O)=O)cc3C2)cc1` are 90.8% and 47%.
The matching figures for `CCCN(Cc1ccccc1)c1cccc(C(=O)N2CCc3ccc(OS(N)(=O)=O)cc3C2)c1`: 67.4% and 23.1%.
As for `CCN(Cc1ccc(F)cc1)c1ccc(C(=O)N2CCc3ccc(OS(N)(=O)=O)cc3C2)cc1`, the inhibition in series [4] amounted to 91.2%; in series [5], 69.1%.
